{
  "source": "ChEMBL document CHEMBL3885881",
  "about": "“DrugMatrix”",
  "species_on_record": "Rattus norvegicus",
  "assay": "DrugMatrix - Regimen: Daily Repeat",
  "format": "toxicity, organism-based, Sprague-Dawley",
  "parameters": "regimen Daily Repeat, gender Male, age 6-8 weeks",
  "conditions": "in vivo, po, 0.3 mg/kg, route oral GAVAGE, dose level Low, vehicle .5 % CMC; for ABSOLUTE BASOPHIL / ABSOLUTE EOSINOPHIL / ABSOLUTE LYMPHOCYTE / ABSOLUTE MONOCYTE / ABSOLUTE SEGMENTED NEUTROPHIL / BASOPHIL / EOSINOPHIL / ERYTHROCYTE COUNT / HEMATOCRIT / HEMOGLOBIN / LEUKOCYTE COUNT / LYMPHOCYTE / MEAN CORPUSCULAR HEMOGLOBIN / MEAN CORPUSCULAR HEMOGLOBIN CONCENTRATION / MEAN CORPUSCULAR VOLUME / MONOCYTE / NEUTROPHIL / NUCLEATED RED BLOOD CELLS / PLATELET COUNT: tissue Blood; for ALANINE AMINOTRANSFERASE / ALBUMIN / ALKALINE PHOSPHATASE / ASPARTATE AMINOTRANSFERASE / BLOOD UREA NITROGEN / CARBON DIOXIDE / CHLORIDE / CHOLESTEROL / CREATINE PHOSPHOKINASE / CREATININE / GLUCOSE / LACTATE DEHYDROGENASE / LIPASE / PHOSPHORUS / POTASSIUM / SODIUM / TOTAL BILIRUBIN / TOTAL PROTEIN / URIC ACID: tissue Plasma",
  "data": [
    {"molecule": "CN1[C@@H]2CC[C@H]1C[C@@H](OC(=O)c1c[nH]c3ccccc13)C2", "note": "[TROPISETRON]", "values": [
      {"measurement": "ABSOLUTE BASOPHIL", "setting": "72 h, time 3 day", "value": 0, "unit": "CELLS/uL"},
      {"measurement": "ABSOLUTE EOSINOPHIL", "setting": "72 h, time 3 day", "value": 256.33, "unit": "CELLS/uL"},
      {"measurement": "ABSOLUTE LYMPHOCYTE", "setting": "72 h, time 3 day", "value": 11976, "unit": "CELLS/uL"},
      {"measurement": "ABSOLUTE MONOCYTE", "setting": "72 h, time 3 day", "value": 96, "unit": "CELLS/uL"},
      {"measurement": "ABSOLUTE SEGMENTED NEUTROPHIL", "setting": "72 h, time 3 day", "value": 905, "unit": "CELLS/uL"},
      {"measurement": "BASOPHIL", "setting": "72 h, time 3 day", "value": 0, "unit": "%"},
      {"measurement": "EOSINOPHIL", "setting": "72 h, time 3 day", "value": 2, "unit": "%"},
      {"measurement": "ERYTHROCYTE COUNT", "setting": "72 h, time 3 day", "value": 5.89, "unit": "x10E6/uL"},
      {"measurement": "HEMATOCRIT", "setting": "72 h, time 3 day", "value": 37.4, "unit": "%"},
      {"measurement": "HEMOGLOBIN", "setting": "72 h, time 3 day", "value": 14.07, "unit": "G/DL"},
      {"measurement": "LEUKOCYTE COUNT", "setting": "72 h, time 3 day", "value": 13.23, "unit": "x10E3/uL"},
      {"measurement": "LYMPHOCYTE", "setting": "72 h, time 3 day", "value": 90.67, "unit": "%"},
      {"measurement": "MEAN CORPUSCULAR HEMOGLOBIN", "setting": "72 h, time 3 day", "value": 23.87, "unit": "pg"},
      {"measurement": "MEAN CORPUSCULAR HEMOGLOBIN CONCENTRATION", "setting": "72 h, time 3 day", "value": 37.63, "unit": "G/DL"},
      {"measurement": "MEAN CORPUSCULAR VOLUME", "setting": "72 h, time 3 day", "value": 63.5, "unit": "fL"},
      {"measurement": "MONOCYTE", "setting": "72 h, time 3 day", "value": 0.67, "unit": "%"},
      {"measurement": "NEUTROPHIL", "setting": "72 h, time 3 day", "value": 6.67, "unit": "%"},
      {"measurement": "NUCLEATED RED BLOOD CELLS", "setting": "72 h, time 3 day", "value": "0 /100WBC"},
      {"measurement": "PLATELET COUNT", "setting": "72 h, time 3 day", "value": 1325.33, "unit": "x10E3/uL"},
      {"measurement": "ALANINE AMINOTRANSFERASE", "setting": "72 h, time 3 day", "value": 46.33, "unit": "u/L"},
      {"measurement": "ALBUMIN", "setting": "72 h, time 3 day", "value": 4.43, "unit": "G/DL"},
      {"measurement": "ALKALINE PHOSPHATASE", "setting": "72 h, time 3 day", "value": 408.67, "unit": "u/L"},
      {"measurement": "ASPARTATE AMINOTRANSFERASE", "setting": "72 h, time 3 day", "value": 87.33, "unit": "u/L"},
      {"measurement": "BLOOD UREA NITROGEN", "setting": "72 h, time 3 day", "value": 13, "unit": "mg/dL"},
      {"measurement": "CARBON DIOXIDE", "setting": "72 h, time 3 day", "value": 26, "unit": "mmol/L"},
      {"measurement": "CHLORIDE", "setting": "72 h, time 3 day", "value": 106, "unit": "MEQ/L"},
      {"measurement": "CHOLESTEROL", "setting": "72 h, time 3 day", "value": 71.33, "unit": "mg/dL"},
      {"measurement": "CREATINE PHOSPHOKINASE", "setting": "72 h, time 3 day", "value": 621.67, "unit": "u/L"},
      {"measurement": "CREATININE", "setting": "72 h, time 3 day", "value": 0.21, "unit": "mg/dL"},
      {"measurement": "GLUCOSE", "setting": "72 h, time 3 day", "value": 160.67, "unit": "mg/dL"},
      {"measurement": "LACTATE DEHYDROGENASE", "setting": "72 h, time 3 day", "value": 123.67, "unit": "u/L"},
      {"measurement": "LIPASE", "setting": "72 h, time 3 day", "value": 9, "unit": "u/L"},
      {"measurement": "PHOSPHORUS", "setting": "72 h, time 3 day", "value": 14.4, "unit": "mg/dL"},
      {"measurement": "POTASSIUM", "setting": "72 h, time 3 day", "value": 6.64, "unit": "MEQ/L"},
      {"measurement": "SODIUM", "setting": "72 h, time 3 day", "value": 147.37, "unit": "MEQ/L"},
      {"measurement": "TOTAL BILIRUBIN", "setting": "72 h, time 3 day", "value": 0.2, "unit": "mg/dL"},
      {"measurement": "TOTAL PROTEIN", "setting": "72 h, time 3 day", "value": 6.17, "unit": "G/DL"},
      {"measurement": "URIC ACID", "setting": "72 h, time 3 day", "value": 2.47, "unit": "mg/dL"},
      {"measurement": "ABSOLUTE BASOPHIL", "setting": "120 h, time 5 day", "value": 0, "unit": "CELLS/uL"},
      {"measurement": "ABSOLUTE EOSINOPHIL", "setting": "120 h, time 5 day", "value": 244.67, "unit": "CELLS/uL"},
      {"measurement": "ABSOLUTE LYMPHOCYTE", "setting": "120 h, time 5 day", "value": 13752.67, "unit": "CELLS/uL"},
      {"measurement": "ABSOLUTE MONOCYTE", "setting": "120 h, time 5 day", "value": 213.33, "unit": "CELLS/uL"},
      {"measurement": "ABSOLUTE SEGMENTED NEUTROPHIL", "setting": "120 h, time 5 day", "value": 1056, "unit": "CELLS/uL"},
      {"measurement": "BASOPHIL", "setting": "120 h, time 5 day", "value": 0, "unit": "%"},
      {"measurement": "EOSINOPHIL", "setting": "120 h, time 5 day", "value": 1.67, "unit": "%"},
      {"measurement": "ERYTHROCYTE COUNT", "setting": "120 h, time 5 day", "value": 5.41, "unit": "x10E6/uL"},
      {"measurement": "HEMATOCRIT", "setting": "120 h, time 5 day", "value": 34.5, "unit": "%"},
      {"measurement": "HEMOGLOBIN", "setting": "120 h, time 5 day", "value": 13.27, "unit": "G/DL"},
      {"measurement": "LEUKOCYTE COUNT", "setting": "120 h, time 5 day", "value": 15.27, "unit": "x10E3/uL"},
      {"measurement": "LYMPHOCYTE", "setting": "120 h, time 5 day", "value": 90.33, "unit": "%"},
      {"measurement": "MEAN CORPUSCULAR HEMOGLOBIN", "setting": "120 h, time 5 day", "value": 24.57, "unit": "pg"},
      {"measurement": "MEAN CORPUSCULAR HEMOGLOBIN CONCENTRATION", "setting": "120 h, time 5 day", "value": 38.43, "unit": "G/DL"},
      {"measurement": "MEAN CORPUSCULAR VOLUME", "setting": "120 h, time 5 day", "value": 63.8, "unit": "fL"},
      {"measurement": "MONOCYTE", "setting": "120 h, time 5 day", "value": 1.33, "unit": "%"},
      {"measurement": "NEUTROPHIL", "setting": "120 h, time 5 day", "value": 6.67, "unit": "%"},
      {"measurement": "NUCLEATED RED BLOOD CELLS", "setting": "120 h, time 5 day", "value": "0 /100WBC"},
      {"measurement": "PLATELET COUNT", "setting": "120 h, time 5 day", "value": 1293.33, "unit": "x10E3/uL"},
      {"measurement": "ALANINE AMINOTRANSFERASE", "setting": "120 h, time 5 day", "value": 47.33, "unit": "u/L"},
      {"measurement": "ALBUMIN", "setting": "120 h, time 5 day", "value": 4.13, "unit": "G/DL"},
      {"measurement": "ALKALINE PHOSPHATASE", "setting": "120 h, time 5 day", "value": 386.33, "unit": "u/L"},
      {"measurement": "ASPARTATE AMINOTRANSFERASE", "setting": "120 h, time 5 day", "value": 80, "unit": "u/L"},
      {"measurement": "BLOOD UREA NITROGEN", "setting": "120 h, time 5 day", "value": 17.67, "unit": "mg/dL"},
      {"measurement": "CARBON DIOXIDE", "setting": "120 h, time 5 day", "value": 25.33, "unit": "mmol/L"},
      {"measurement": "CHLORIDE", "setting": "120 h, time 5 day", "value": 106.67, "unit": "MEQ/L"},
      {"measurement": "CHOLESTEROL", "setting": "120 h, time 5 day", "value": 71.33, "unit": "mg/dL"},
      {"measurement": "CREATINE PHOSPHOKINASE", "setting": "120 h, time 5 day", "value": 310, "unit": "u/L"},
      {"measurement": "CREATININE", "setting": "120 h, time 5 day", "value": 0.21, "unit": "mg/dL"},
      {"measurement": "GLUCOSE", "setting": "120 h, time 5 day", "value": 162, "unit": "mg/dL"},
      {"measurement": "LACTATE DEHYDROGENASE", "setting": "120 h, time 5 day", "value": 329, "unit": "u/L"},
      {"measurement": "LIPASE", "setting": "120 h, time 5 day", "value": 9, "unit": "u/L"},
      {"measurement": "PHOSPHORUS", "setting": "120 h, time 5 day", "value": 13.37, "unit": "mg/dL"},
      {"measurement": "POTASSIUM", "setting": "120 h, time 5 day", "value": 6, "unit": "MEQ/L"},
      {"measurement": "SODIUM", "setting": "120 h, time 5 day", "value": 145.27, "unit": "MEQ/L"},
      {"measurement": "TOTAL BILIRUBIN", "setting": "120 h, time 5 day", "value": 0.27, "unit": "mg/dL"},
      {"measurement": "TOTAL PROTEIN", "setting": "120 h, time 5 day", "value": 6.37, "unit": "G/DL"},
      {"measurement": "URIC ACID", "setting": "120 h, time 5 day", "value": 1.77, "unit": "mg/dL"}
    ]}
  ]
}
